# Assay results from patent US20240415837A1, “PHARMACOLOGIC MODULATION OF 5-FLUOROURACIL BY FOLINIC ACID AND VITAMIN B6 FOR THE TREATMENT OF PATIENTS WITH CARCINOMA” (priority 2021, published 2024).
# Where two headings read alike, the source gives them in different places.
# Experiments:
# [1] = target: serine hydroxymethyl transferase (SHMT) apoenzyme; conditions: cited from earlier work
# [2] = Erythrocyte pharmacokinetics of vitamin B6 after intraperitoneal high-dose pyridoxine or pyridoxamine in mice; conditions: erythrocytes, 450 mg/kg intraperitoneal
# Description: Erythrocyte pyridoxamine 5′-phosphate (PMP) and pyridoxal 5′-phosphate (PLP) levels were measured in mice after intraperitoneal administration of high doses of pyridoxine (PN) or pyridoxamine (PM).
# [3] = target: T1, pyridoxine (pyridoxamine) 5′-phosphate oxidase (PNPOx) (Homo sapiens, UniProt Q9NVS9); conditions: read-out: Km of PNPOx; cited from earlier work
# T1 sequence (Q9NVS9 1-261): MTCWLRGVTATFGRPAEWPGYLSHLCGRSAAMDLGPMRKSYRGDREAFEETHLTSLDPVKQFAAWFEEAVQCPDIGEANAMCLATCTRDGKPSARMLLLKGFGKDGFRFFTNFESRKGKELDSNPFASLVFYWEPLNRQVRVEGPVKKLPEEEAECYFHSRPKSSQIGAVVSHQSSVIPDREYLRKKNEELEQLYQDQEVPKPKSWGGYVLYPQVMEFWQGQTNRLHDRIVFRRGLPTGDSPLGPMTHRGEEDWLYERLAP
# [4] = cited from earlier work
# [5] = Pilot study in patients with advanced breast carcinoma: assessment of toxicity; conditions: human, in vivo
# Excerpt: Doxorubicin comprised in FAC and AVCF regimens was suspended in case of ≥10% decrease in left ventricular ejection fraction from baseline value. […] Vinorelbine-containing chemotherapy (i.e., VCbF) was indicated instead of TCbF for patients who had severe hematopoietic impairment or prior taxane-induced toxicity and was used in substitution for TCbF in cases of paclitaxel-induced SPN occurring in patients throughout the study.
# Patients with paclitaxel induced neuropathy, whose chemotherapy was either interrupted or pursued with VCbF had further progressive decrease of neurologic symptoms, and then disappearance occurring in most patients during follow-up. […] Except for interruption of paclitaxel as described above, no dose reductions of any cytostatic agent or increasing intervals between courses due to unusual or unexpectedly excessive hematologic and/or visceral toxicity were required. The single case of acute myelogenous leukemia carrying the 17q-chromosome aberration marker occurred 18 months after cessation of induction treatment in one patient who had prior genotoxic cytostatics and radiotherapy.
structure (smiles),measurement,setting,value
"Cc1ncc(COP(=O)(O)O)c(C=O)c1O [PLP, pyridoxal 5′-phosphate]",Kd,"[1]; read-out: Kd of SHMT binding to cofactor, lower end of reported range",≥ 0.25 µM
same,Kd,"[1]; read-out: Kd of SHMT binding to cofactor, upper end of reported range",≤ 27 µM
"Cc1ncc(CO)c(CN)c1O [PM, pyridoxamine]",AUC 12 h of B6 vitamer: PLP,[2],"14,988 nmol/L cells · 12 h"
same,AUC 12 h of B6 vitamer: PMP,[2],"19,356 nmol/L cells · 12 h"
"Cc1ncc(COP(=O)(O)O)c(CN)c1O [PMP, pyridoxamine 5′-phosphate]",Km,[3],1 µM
"Cc1ncc(CO)c(CO)c1O [PN, pyridoxine]",AUC 12 h of B6 vitamer: PLP,[2],"2,231 nmol/L cells · 12 h"
same,AUC 12 h of B6 vitamer: PMP,[2],"11,597 nmol/L cells · 12 h"
same,toxicity in man,[4]; extremely high doses for long periods of time,sensory peripheral neuropathy
same,safety in man,[4]; high doses used for treatment of various conditions,safe
same,"sensory peripheral neuropathy with high cumulative doses of pyridoxine, versus that expected with paclitaxel in TCbF",[5],"not accompanied with greater incidence, or higher grades, of sensory peripheral neuropathy"
